In brackets after ≈: the same amount, converted by molar mass. Read-outs that look alike come from different tables or passages of the source.
Assays:
MTB H37Rv ATCC 27294 = assay: MIC, microplate Alamar Blue assay (MABA); format: cell-based, Mycobacterium tuberculosis
VERO cells (ATCC CRL-81) = assay: Vero cell toxicity; format: cell-based; details: 72 hours exposure
Method: Cytotoxicity for a mammalian cell line was determined by exposing VERO cells (ATCC CRL-81) to serial dilutions of test compounds for 72 hours, followed by addition of resazurin and measurement of fluorescence after 4 hours incubation (Choules, et al., Antimnicrob. Agents Chemother. 2019, 63, e02204-02218).

[1] = Mycobacterium tuberculosis, MTB H37Rv ATCC 27294, microplate Alamar Blue assay, lowest concentration giving ≥90% reduction in fluorescence
[2] = MTB H37Rv ATCC 27294, microplate Alamar Blue assay, lowest concentration giving ≥90% reduction in fluorescence

SMILES	MIC90 MABA Rel to RMP (MTB H37Rv ATCC 27294)	MIC90 (MTB H37Rv ATCC 27294; [1])	DPX2 Viability @ 6.25 μM (DPX2 cells; 24 h)	DPX2 Viability @ 25 μM (DPX2 cells; human)	IC50 (VERO cells (ATCC CRL-81); Chlorocebus sabaeus, Vero)	MIC (MTB H37Rv ATCC 27294; Mycobacterium tuberculosis, MTB H37Rv ATCC 27294, microplate Alamar Blue assay, lowest concentration giving ≥90% reduction in fluorescence, read-out: MIC90 MABA)	MIC90 (MTB H37Rv ATCC 27294; [2])	IC50 (VERO cells (ATCC CRL-81))	DPX2 Viability @ 6.25 μM (DPX2 cells; human, 24 h)	DPX2 Viability @ 25 μM (DPX2 cells; human, 24 h, 25 μM)
CO[C@H]1/C=C/O[C@@]2(C)Oc3c(C)c(O)c4c(=O)c(c5oc6cc(N7CCN(C(=O)c8cccc(-c9ccccn9)c8)CC7)cc(C)c6nc-5c4c3C2=O)NC(=O)/C(C)=C\C=C\[C@H](C)[C@H](O)[C@@H](C)[C@@H](O)[C@@H](C)[C@H](OC(C)=O)[C@@H]1C [Compound 29b, (7S,9E,11S,12R,13S,14R,15R,16R,17S,18S,19E,21Z)-2,15,17-Trihydroxy-11-methoxy-3,7,12,14,16,18,22,32-octamethyl-6,23,37-trioxo-30-(4-[3-(pyridin-2-yl)benzoyl]piperazin-1-yl)-8,27,38-trioxa-24,34-diazahexacyclo-[23.11.1.1^4,7.0^5,36.0^26,35.0^28,33]octatriaconta-1(36)2,4,9,19,21,25,28,30,32,34-undecaen-13-yl acetate]	0.32	8.7 nM	136%	128%	> 10 µM	–	–	–	–	–
CO[C@H]1/C=C/O[C@@]2(C)Oc3c(C)c(O)c4c(=O)c(c5oc6cc(N7CCN(C(=O)c8ccc9occc9c8)CC7)cc(C)c6nc-5c4c3C2=O)NC(=O)/C(C)=C\C=C\[C@H](C)[C@H](O)[C@@H](C)[C@@H](O)[C@@H](C)[C@H](OC(C)=O)[C@@H]1C [Compound 29c, (7S,9E,11S,12R,13S,14R,15R,16R,17S,18S,19E,21Z)-30-[4-(1-Benzofuran-5-carbonyl)piperazin-1-yl]-2,15,17-trihydroxy-11-methoxy-3,7,12,14,16,18,22,32-octamethyl-6,23,37-trioxo-8,27,38-trioxa-24,34-diazahexacyclo[23.11.1.1^4,7.0^5,36.0^26,35.0^28,33]octatriaconta-(36)2,4,9,19,21,25,28,30,32,34-undecaen-13-yl acetate]	0.18	4.9 nM	121%	114%	> 10 µM	–	–	–	–	–
CO[C@H]1/C=C/O[C@@]2(C)Oc3c(C)c(O)c4c(=O)c(c5oc6cc(N7CCN(CC(=O)O)CC7)cc(C)c6nc-5c4c3C2=O)NC(=O)/C(C)=C\C=C\[C@H](C)[C@H](O)[C@@H](C)[C@@H](O)[C@@H](C)[C@H](OC(C)=O)[C@@H]1C [Compound 29h, 2-{4-[(7S,9E,11S,12R,13S,14R,15R,16R,17S,18S,19E,21Z)-13-(acetyloxy)-2,15,17-trihydroxy-11-methoxy-3,7,12,14,16,18,22,32-octamethyl-6,23,37-trioxo-8,27,38-trioxa-24,34-diazahexacyclo[23.11.1.1^4,7.0^5,36.0^26,35.0^28,33]octatriaconta-1,3,5(36)9,19,21,25,28,30,32,34-undecaen-30-yl]piperazin-1-yl}acetic acid]	0.69	18 nM (≈ 0.0169 µg/mL)	109%	98%	> 10 µM	–	–	–	–	–
CO[C@H]1/C=C/O[C@@]2(C)Oc3c(C)c(O)c4c(=O)c(c5oc6cc(N7CCN(CC(=O)O)CC7)cc(OCc7ccc(CN8CCOCC8)cc7)c6nc-5c4c3C2=O)NC(=O)/C(C)=C\C=C\[C@H](C)[C@H](O)[C@@H](C)[C@@H](O)[C@@H](C)[C@H](OC(C)=O)[C@@H]1C [Compound 17i]	1.0	–	106%	100%	> 10 µM	26 nM (≈ 0.0294 µg/mL)	–	–	–	–
CO[C@H]1/C=C/O[C@@]2(C)Oc3c(C)c(O)c4c(=O)c(c5oc6cc(C=O)cc(N7CCN(CC(C)C)CC7)c6nc-5c4c3C2=O)NC(=O)/C(C)=C\C=C\[C@H](C)[C@H](O)[C@@H](C)[C@@H](O)[C@@H](C)[C@H](OC(C)=O)[C@@H]1C [Compound 30d, (7S,9E,11S,12R,13S,14R,15R,16R,17S,1S,19E,21Z)-30-Formyl-2,15,17-trihydroxy-11-methoxy-3,7,12,14,16,18,22-heptamethyl-32-[4-(2-methylpropyl)piperazin-1-yl]-6,23,37-trioxo-8,27,38-trioxa-24,34-diazahexacyclo[23.11.1.1^4,7.0^5,36.0^26,35.0^28,33]octatriaconta-1(36)2,4,9,19,21,25,28,30,32,34-undecaen-13-yl acetate]	<0.6	–	–	–	–	–	<16 nM	> 8 µM	–	–
CO[C@H]1/C=C/O[C@@]2(C)Oc3c(C)c(O)c4c(=O)c(c5oc6cc(C)cc(N7CCN(CCn8ccnc8)CC7)c6nc-5c4c3C2=O)NC(=O)/C(C)=C\C=C\[C@H](C)[C@H](O)[C@@H](C)[C@@H](O)[C@@H](C)[C@H](OC(C)=O)[C@@H]1C [Compound 30e, (7S,9E,11S,12R,13S,14R,15R,16R,17S,18S,19E,21Z)-2,15,17-Trihydroxy-32-{4-[3-(1H-imidazol-1-yl)ethyl]piperazin-1-yl}-11-methoxy-3,7,12,14,16,18,22,30-octamethyl-6,23,37-trioxo-8,27,38-trioxa-24,34-diazahexacyclo[23.11.1.1^4,7.0^5,36.0^26,35.0^28,33]octatriaconta-1(36)2,4,9,19,21,25,28,30,32,34-undecaen-13-yl acetate]	3.11	84 nM	130%	119%	> 10 µM	–	–	–	–	–
CO[C@H]1/C=C/O[C@@]2(C)Oc3c(C)c(O)c4c(=O)c(c5oc6cc(C=O)cc(N7CCN(C)CC7)c6nc-5c4c3C2=O)NC(=O)/C(C)=C\C=C\[C@H](C)[C@H](O)[C@@H](C)[C@@H](O)[C@@H](C)[C@H](OC(C)=O)[C@@H]1C [Compound 30b, (7S,9E,11S,12R,13S,14R,15R,16R,17S,18S,19E,21Z)-30-Formyl-2,15,17-trihydroxy-11-methoxy-3,7,12,14,16,18,22-heptamethyl-32-(4-methylpiperazin-1-yl)-6,23,37-trioxo-8,27,38-trioxa-24,34-diazahexacyclo[23.11.1.1^4,7.0^5,36.0^26,35.0^28,33]octatriaconta-1(36)2,4,9,19,21,25,28,30,32,34-undecaen-13-yl acetate]	1.37	–	–	–	–	–	37 nM	> 8 µM	–	–
COC(=O)N1CCN(c2cc(C)c3nc4c5c6c7c(C)c(O)c5c(=O)c(c-4oc3c2)NC(=O)/C(C)=C\C=C\[C@H](C)[C@H](O)[C@@H](C)[C@@H](O)[C@@H](C)[C@H](OC(C)=O)[C@H](C)[C@@H](OC)/C=C/O[C@@](C)(O7)C6=O)CC1 [Compound 26g, Methyl 4-[(7S,9E,11S,12R,13S,14R,15R,16R,17S,18S,19E,21Z)-13-(acetyloxy)-2,15,17-trihydroxy-11-methoxy-3,7,12,14,16,18,22,32-octamethyl-6,23,37-trioxo-8,27,38-trioxa-24,34-diazahexacyclo[23.11.1.1^4,7.0^5,36.0^26,35.0^28,33]octatriaconta-1(36)2,4,9,19,21,25,28,30,32,34-undecaen-30-yl]piperazine-1-carboxylate]	0.18	5 nM (≈ 0.00471 µg/mL)	111%	105%	–	–	–	–	–	–
CO[C@H]1/C=C/O[C@@]2(C)Oc3c(C)c(O)c4c(=O)c(c5oc6cc(N7CCN(C(=O)C(C)(C)C)CC7)cc(C)c6nc-5c4c3C2=O)NC(=O)/C(C)=C\C=C\[C@H](C)[C@H](O)[C@@H](C)[C@@H](O)[C@@H](C)[C@H](OC(C)=O)[C@@H]1C [Compound 26f, (7S,9E,11S,12R,13S,14R,15R,16R,17S,18S,19E,21Z)-30-[4-(2,2-Dimethylpropanoyl)piperazin-1-yl]-2,15,17-trihydroxy-11-methoxy-3,7,12,14,16,18,22,32-octamethyl-6,23,37-trioxo-8,27,38-trioxa-24,34-diazahexacyclo[23.11.1.1^4,7.0^5,36.0^26,35.0^28,33]octatriaconta-1(36)2,4,9,19,21,25,28,30,32,34-undecaen-13-yl acetate]	0.17	4.6 nM	111%	102%	–	–	–	–	–	–
CO[C@H]1/C=C/O[C@@]2(C)Oc3c(C)c(O)c4c(c3C2=O)C2=NC3(CCN(CC(C)C)CC3)NC2=C(NC(=O)/C(C)=C\C=C\[C@H](C)[C@H](O)[C@@H](C)[C@@H](O)[C@@H](C)[C@H](OC(C)=O)[C@@H]1C)C4=O [RFB, rifabutin, reference compound]	0.09	2.4 nM (≈ 0.00203 µg/mL)	–	–	–	–	–	–	117%	107%
